Measured values taken from patent US10927111B2, “Inhibitors of RAF kinases” (Kinnate Biopharma Inc., priority 2019, dated 2021).

These compounds were tested against human RAF1 (Homo sapiens (Human), UniProt P04049) (assay: Protein kinase assay (radiometric 33P-ATP, MEK1 (K97R) substrate)). Details: human MEK1 (K97R) substrate 3 micromolar, ATP 10 micromolar, 10-dose IC50 mode; read-out: RAF-1 IC50.
Chain of human RAF1 (P04049 whole entry): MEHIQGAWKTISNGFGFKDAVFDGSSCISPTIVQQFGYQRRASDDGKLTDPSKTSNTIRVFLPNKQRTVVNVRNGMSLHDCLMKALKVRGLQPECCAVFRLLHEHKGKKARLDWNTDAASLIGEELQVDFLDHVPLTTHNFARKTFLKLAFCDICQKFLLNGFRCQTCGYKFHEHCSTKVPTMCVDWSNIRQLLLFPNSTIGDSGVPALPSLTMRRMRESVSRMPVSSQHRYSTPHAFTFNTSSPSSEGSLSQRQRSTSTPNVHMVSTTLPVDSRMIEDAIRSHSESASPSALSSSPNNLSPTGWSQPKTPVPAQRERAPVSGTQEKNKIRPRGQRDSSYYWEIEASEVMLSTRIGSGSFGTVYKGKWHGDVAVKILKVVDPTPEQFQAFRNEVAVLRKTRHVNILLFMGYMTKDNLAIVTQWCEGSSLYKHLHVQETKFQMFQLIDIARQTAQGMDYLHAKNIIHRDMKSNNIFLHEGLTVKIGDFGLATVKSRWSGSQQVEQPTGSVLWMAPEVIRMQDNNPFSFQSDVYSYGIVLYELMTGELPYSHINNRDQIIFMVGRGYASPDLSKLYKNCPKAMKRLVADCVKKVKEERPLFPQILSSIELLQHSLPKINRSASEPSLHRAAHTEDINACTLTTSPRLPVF
Format: biochemical
Method: Protein kinase assay: Assay platform was used to measure kinase/inhibitor interactions as described previously (Anastassiadis et al., 2011). In brief, for each reaction, kinase and substrate were mixed in a buffer containing 20 mM HEPES (pH 7.5), 10 mM MgCl2, 1 mM EGTA, 0.02% Brij35, 0.02 mg/mL BSA, 0.1 mM Na3VO4, 2 mM DTT, and 1% DMSO. All compounds were solubilized in DMSO. Compounds were then added to each reaction mixture via acoustic dispense using an ECHO 550 nanoliter dispenser. For human RAF1 testing, human MEK1 (K97R) was used as a substrate at a concentration of 3 micromolar, with a final ATP concentration of 10 micromolar. For human BRAF testing, human MEK1 (K97R) was used as a substrate at 1 micromolar concentration, with a final ATP concentration of 25 micromolar. […] After a 20-min incubation, ATP (Sigma-Aldrich, St. Louis, Mo. 63178) and [g33P] ATP (specific activity 10 microCi/microliter) purchased at PerkinElmer (Boston, Mass., 02118 Cat #BLU 003H250UC) were added at a final total concentration of 10 mM. Reactions were carried out at room temperature for 2 hr and spotted onto P81 ionexchange cellulose chromatography paper (Reaction Biology). Filter paper was washed in 0.75% phosphoric acid to remove unincorporated ATP. The percent remaining kinase activity relative to a vehicle-containing (DMSO) kinase reaction was calculated for each kinase/inhibitor pair. IC50 values were calculated using Prism 5 (GraphPad).
In the case of CNc1ncc2cc(-c3cc(NC(=O)N4CC[C@H](OC(F)(F)F)C4)cnc3C)cnc2n1 [Example 63, (3S)-N/-[6-methyl-5-[2-(methylamino)pyrido[2,3-d]pyrimidin-6-yl]pyridin-3-yl]-3-(trifluoromethoxy)pyrrolidine-1-carboxamide], the IC50 is reported as ≤ 10 nM.
In the case of Cc1ccc(NC(=O)c2ccnc(C(F)(F)F)c2)cc1-c1cc2cnc(NCCN3CCCC3)nc2nc1C [Example 39, N-(4-methyl-3-(7-methyl-2-((2-(pyrrolidin-1-yl)ethyl)amino)pyrido[2,3-d]pyrimidin-6-yl)phenyl)-2-(trifluoromethyl)isonicotinamide], the IC50 is reported as ≤ 10 nM.
For CNc1ncc2cc(-c3cc(NC(=O)N4CCO[C@H](C(F)(F)F)C4)c(F)cc3C)cnc2n1 [Example 61, (2S)-N-[2-fluoro-4-methyl-5-[2-(methylamino)pyrido[2,3-d]pyrimidin-6-yl]phenyl]-2-(trifluoromethyl)morpholine-4-carboxamide], the IC50 was ≤ 10 nM.
CNc1ncc2cc(-c3cc(NC(=O)c4cccc(C(F)(F)F)c4C)cnc3C)cnc2n1 [Example 47, 2-methyl-N-(6-methyl-5-(2-(methylamino)pyrido[2,3-d]pyrimidin-6-yl)pyridin-3-yl)-3-(trifluoromethyl)benzamide] was tested, and the IC50 was ≤ 10 nM.
With CNc1ncc2cc(-c3cc(NC(=O)c4cnnc(C(F)(F)F)c4)ccc3C)c(C)nc2n1 [Example 50, N-(4-methyl-3-(7-methyl-2-(methylamino)pyrido[2,3-d]pyrimidin-6-yl)phenyl)-6-(trifluoromethyl)pyridazine-4-carboxamide] the IC50 was ≤ 10 nM.
With CNc1ncc2cc(-c3cc(NC(=O)N4CC[C@H](CC(F)(F)F)C4)c(F)cc3C)cnc2n1 [Example 30, (R)-N-(2-fluoro-4-methyl-5-(2-(methylamino)pyrido[2,3-d]pyrimidin-6-yl)phenyl)-3-(2,2,2-trifluoroethyl)pyrrolidine-1-carboxamide] the IC50 was ≤ 10 nM.
CNc1ncc2cc(-c3cc(NC(=O)c4cccc(C(F)(F)F)c4)ccc3C)c(C)nc2n1 [Example 29, N-(4-methyl-3-(7-methyl-2-(methylamino)pyrido[2,3-d]pyrimidin-6-yl)phenyl)-3-(trifluoromethyl)benzamide] was tested, and the IC50 was ≤ 10 nM.
In the case of CNc1ncc2cc(-c3cc(NC(=O)N4CC[C@@H](OC(F)(F)F)C4)c(F)cc3C)cnc2n1 [Example 60, (3R)-N-[2-fluoro-4-methyl-5-[2-(methylamino)pyrido[2,3-d]pyrimidin-6-yl]phenyl]-3-(trifluoromethoxy)pyrrolidine-1-carboxamide], the IC50 is reported as ≤ 10 nM.
With CNc1ncc2cc(-c3cc(NC(=O)N4CC=C(C(F)(F)F)C4)ccc3C)c(C)nc2n1 [Example 16, N-(4-methyl-3-(7-methyl-2-(methylamino)pyrido[2,3-d]pyrimidin-6-yl)phenyl)-3-(trifluoromethyl)-2,5-dihydro-1H-pyrrole-1-carboxamide] the IC50 was ≤ 10 nM.
With Cc1ccc(NC(=O)c2ccnc(C(F)(F)F)c2)cc1-c1cc2cnc(N)nc2nc1C [Example 48, N-(3-(2-amino-7-methylpyrido[2,3-d]pyrimidin-6-yl)-4-methylphenyl)-2-(trifluoromethyl)isonicotinamide] the IC50 was ≤ 10 nM.
CNc1ncc2cc(-c3cc(NC(=O)c4ccnc(C(F)(F)F)c4C)ccc3C)c(C)nc2n1 [Example 41, 3-methyl-N-(4-methyl-3-(7-methyl-2-(methylamino)pyrido[2,3-d]pyrimidin-6-yl)phenyl)-2-(trifluoromethyl)isonicotinamide] was tested, and the IC50 was ≤ 10 nM.
With CNc1ncc2cc(-c3cc(NC(=O)N4CCC(C(F)(F)F)C4)ccc3C)c(C)nc2n1 (stereo not drawn) [Example 14, N-(4-methyl-3-(7-methyl-2-(methylamino)pyrido[2,3-d]pyrimidin-6-yl)phenyl)-3-(trifluoromethyl)pyrrolidine-1-carboxamide] the IC50 was ≤ 10 nM.
For CNc1ncc2cc(-c3cc(NC(=O)c4ccnc(C(F)(F)F)c4)cnc3C)cnc2n1 [Example 46, N-(6-methyl-5-(2-(methylamino)pyrido[2,3-d]pyrimidin-6-yl)pyridin-3-yl)-2-(trifluoromethyl)isonicotinamide], the IC50 was ≤ 10 nM.
In the case of CNc1ncc2cc(-c3cc(NC(=O)c4cncc(C(F)(F)F)c4)ccc3C)c(C)nc2n1 [Example 32, N-(4-methyl-3-(7-methyl-2-(methylamino)pyrido[2,3-d]pyrimidin-6-yl)phenyl)-5-(trifluoromethyl)nicotinamide], the IC50 is reported as ≤ 10 nM.
With CNc1ncc2cc(-c3cc(NC(=O)N4CC[C@@H](CC(F)(F)F)C4)ccc3C)c(C#N)nc2n1 [Example 77, (3S)—N-[3-[7-cyano-2-(methylamino)pyrido[2,3-d]pyrimidin-6-yl]-4-methylphenyl]-3-(2,2,2-trifluoroethyl)pyrrolidine-1-carboxamide] the IC50 was ≤ 10 nM.
In the case of CNc1ncc2cc(-c3cc(NC(=O)N4CC[C@@H](C(F)(F)F)C4)c(F)cc3C)c(C)nc2n1 [Example 2, (R)-N-(2-fluoro-4-methyl-5-(7-methyl-2-(methylamino)pyrido[2,3-d]pyrimidin-6-yl)phenyl)-3-(trifluoromethyl)pyrrolidine-1-carboxamide], the IC50 is reported as ≤ 10 nM.
With CNc1ncc2cc(-c3cc(NC(=O)N4CCO[C@@H](C(F)(F)F)C4)c(F)cc3C)c(C)nc2n1 [Example 10, (2R)-N-[2-fluoro-4-methyl-5-[7-methyl-2-(methylamino)pyrido[2,3-d]pyrimidin-6-yl]phenyl]-2-(trifluoromethyl)morpholine-4-carboxamide] the IC50 was ≤ 10 nM.
CNc1ncc2cc(-c3cc(NC(=O)c4ccnc(C(C)(F)F)c4)ccc3C)c(C)nc2n1 [Example 52, 2-(1,1-difluoroethyl)-N-[4-methyl-3-[7-methyl-2-(methylamino)pyrido[2,3-d]pyrimidin-6-yl]phenyl]pyridine-4-carboxamide] was tested, and the IC50 was ≤ 10 nM.
With CNc1ncc2cc(-c3cc(NC(=O)N4CCO[C@@H](C(F)(F)F)C4)ccc3C)c(C)nc2n1 [Example 12, (2R)-N-[4-methyl-3-[7-methyl-2-(methylamino)pyrido[2,3-d]pyrimidin-6-yl]phenyl]-2-(trifluoromethyl)morpholine-4-carboxamide] the IC50 was ≤ 10 nM.
With CNc1ncc2cc(-c3cc(NC(=O)N4CC[C@H](OC(F)(F)F)C4)c(F)cc3C)cnc2n1 [Example 59] the IC50 was ≤ 10 nM.
With CNc1ncc2cc(-c3cc(NC(=O)c4cc(C)nc(C(F)(F)F)c4)ccc3C)c(C)nc2n1 [Example 34, 2-methyl-N-(4-methyl-3-(7-methyl-2-(methylamino)pyrido[2,3-d]pyrimidin-6-yl)phenyl)-6-(trifluoromethyl)isonicotinamide] the IC50 was ≤ 10 nM.
In the case of CNc1ncc2cc(-c3cc(NC(=O)N4CC[C@@H](CC(F)(F)F)C4)c(F)cc3C)cnc2n1 [Example 31, (S)-N-(2-fluoro-4-methyl-5-(2-(methylamino)pyrido[2,3-d]pyrimidin-6-yl)phenyl)-3-(2,2,2-trifluoroethyl)pyrrolidine-1-carboxamide], the IC50 is reported as ≤ 10 nM.
With CNc1ncc2cc(-c3cc(NC(=O)N4CC[C@@H](OCC(F)(F)F)C4)c(F)cc3C)c(C)nc2n1 [Example 51, (3R)-N-[2-fluoro-4-methyl-5-[7-methyl-2-(methylamino)pyrido[2,3-d]pyrimidin-6-yl]phenyl]-3-(2,2,2-trifluoroethoxy)pyrrolidine-1-carboxamide] the IC50 was ≤ 10 nM.
CNc1ncc2cc(-c3cc(NC(=O)c4ccnc(C(F)(F)F)c4)ccc3C)c(OCCO)nc2n1 [Example 70, N-[3-[7-(2-hydroxyethoxy)-2-(methylamino)pyrido[2,3-d]pyrimidin-6-yl]-4-methylphenyl]-2-(trifluoromethyl)pyridine-4-carboxamide] was tested, and the IC50 was ≤ 10 nM.
With CNc1ncc2cc(-c3cc(NC(=O)N4CCO[C@H](C(F)(F)F)C4)ccc3C)cnc2n1 [Example 57] the IC50 was ≤ 10 nM.

Same assay, conditions: read-out: RAF-1 IC50
In the case of [2H]C([2H])([2H])Oc1nc2nc(NC)ncc2cc1-c1cc(NC(=O)c2ccnc(C(F)(F)F)c2)ccc1C [Example 71, N-(3-(7-(methoxy-d3)-2-(methylamino)pyrido[2,3-d]pyrimidin-6-yl)-4-methylphenyl)-2-(trifluoromethyl)isonicotinamide], the IC50 is reported as ≤ 10 nM.
CNc1ncc2cc(-c3cc(NC(=O)N4CC[C@H](SC(F)(F)F)C4)ccc3C)c(C)nc2n1 [Example 5] was tested, and the IC50 was 10 to 100 nM.
In the case of CNc1ncc2cc(-c3cc(NC(=O)c4ccnc(C(F)(F)F)c4)ccc3C)c(C)nc2n1 [Example 6, N-[4-methyl-3-[7-methyl-2-(methylamino)pyrido[2,3-d]pyrimidin-6-yl]phenyl]-2-(trifluoromethyl)pyridine-4-carboxamide], the IC50 is reported as ≤ 10 nM.
In the case of [2H]C([2H])([2H])Nc1ncc2cc(-c3cc(NC(=O)c4ccnc(C(F)(F)F)c4)ccc3C)c(C)nc2n1 [Example 43, N-(4-methyl-3-(7-methyl-2-((trideuteromethyl)amino)pyrido[2,3-d]pyrimidin-6-yl)phenyl)-2-(trifluoromethyl)isonicotinamide], the IC50 is reported as ≤ 10 nM.
With CNc1ncc2cc(-c3cc(NC(=O)N4CC[C@@H](CC(F)(F)F)C4)c(F)cc3C)c(C)nc2n1 [Example 18, (S)-N-(2-fluoro-4-methyl-5-(7-methyl-2-(methylamino)pyrido[2,3-d]pyrimidin-6-yl)phenyl)-3-(2,2,2-trifluoroethyl)pyrrolidine-1-carboxamide] the IC50 was ≤ 10 nM.
